What is called Ki is the equilibrium dissociation constant of an inhibitor or competing ligand from its target.

Among the data in patent US8530486B2, “Quinazolines and related heterocyclic compounds, and their therapeutic use” (Vereniging Voor Christelijk Hoger Onderwijs, …, priority 2008, dated 2013) are Ki values, retold here.

The target of the test is T1, human H4 receptor (Homo sapiens, UniProt Q9H3N8).
T1 construct: expressed in transfected cells; host or cells: HEK 293T cells, transient transfection with polyethyleneimine
T1 sequence (Q9H3N8 whole entry): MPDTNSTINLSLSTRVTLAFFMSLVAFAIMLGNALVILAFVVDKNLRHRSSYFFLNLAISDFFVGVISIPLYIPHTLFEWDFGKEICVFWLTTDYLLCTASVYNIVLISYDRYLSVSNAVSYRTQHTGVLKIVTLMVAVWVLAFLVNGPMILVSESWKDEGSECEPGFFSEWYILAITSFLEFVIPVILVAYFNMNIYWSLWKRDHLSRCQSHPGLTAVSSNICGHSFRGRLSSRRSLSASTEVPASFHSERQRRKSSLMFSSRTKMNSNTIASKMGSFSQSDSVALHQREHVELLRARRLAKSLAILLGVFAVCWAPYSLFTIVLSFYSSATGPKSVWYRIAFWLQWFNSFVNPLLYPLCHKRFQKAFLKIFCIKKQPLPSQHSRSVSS
Description: [3H]Histamine binding assay (radioligand displacement at the human H4 receptor). Particulars: [3H]histamine displacement, membranes of HEK 293T cells transfected with human H4R; read-out: Activity Class* (Ki in H4 binding assay).
Consider `CN1CCN(c2nc(NCCS(=O)(=O)Nc3ccccc3)c3cc(Cl)cc(Cl)c3n2)CC1` [Example 14], for which the inhibition constant (Ki) was under 1000 nM. Regarding `CN1CCN(c2nc(NCCS(=O)(=O)Nc3ccccc3)c3ccc(Cl)c(Cl)c3n2)CC1` [Example 16, 2-(7,8-dichloro-2-(4-methylpiperazin-1-yl)quinazoline-4-amino)-N-phenylethanesulfonamide], the Ki is under 1000 nM. Turning to `CN1CCN(c2nc(NCCS(=O)(=O)Nc3ccccc3)c3c(Cl)cc(Cl)cc3n2)CC1` [Example 17, 2-(5,7-dichloro-2-(4-methylpiperazin-1-yl)quinazoline-4-amino)-N-phenylethanesulfonamide], the Ki is under 1000 nM. As to `CN1CCN(c2nc(NCCS(=O)(=O)Nc3ccccc3)c3cc(Cl)c(Cl)cc3n2)CC1` [Example 12, 2-(6,7-dichloro-2-(4-methylpiperazin-1-yl)quinazoline-4-amino)-N-phenylethanesulfonamide], the Ki is under 1000 nM. For `CN1CCN(c2nc(NCCS(=O)(=O)Nc3ccc(I)cc3)c3cc(Cl)ccc3n2)CC1` [Example 8, 2-(6-chloro-2-(4-methylpiperazin-1-yl)quinazoline-4-amino)-N-(4-iodophenyl)ethanesulfonamide], the Ki was under 1000 nM.
